Data set [1] has as its target T1, hOAT3 (Homo sapiens, UniProt Q8TCC7).
T1 sequence (Q8TCC7 1-542): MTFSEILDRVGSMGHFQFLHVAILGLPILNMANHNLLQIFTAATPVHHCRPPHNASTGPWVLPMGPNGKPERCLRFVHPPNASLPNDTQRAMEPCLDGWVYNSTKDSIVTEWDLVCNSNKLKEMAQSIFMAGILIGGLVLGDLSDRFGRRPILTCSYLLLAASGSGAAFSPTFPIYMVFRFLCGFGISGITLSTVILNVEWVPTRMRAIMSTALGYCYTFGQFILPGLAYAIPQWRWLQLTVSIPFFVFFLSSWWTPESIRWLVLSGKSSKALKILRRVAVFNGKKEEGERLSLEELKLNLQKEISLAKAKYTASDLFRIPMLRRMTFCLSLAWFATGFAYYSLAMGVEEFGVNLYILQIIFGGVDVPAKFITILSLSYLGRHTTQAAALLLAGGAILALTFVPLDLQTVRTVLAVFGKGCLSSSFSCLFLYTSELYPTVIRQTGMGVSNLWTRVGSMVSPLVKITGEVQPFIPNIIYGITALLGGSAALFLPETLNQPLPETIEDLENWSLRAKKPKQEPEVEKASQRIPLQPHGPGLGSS
The data set is described as follows: Substrates uptake assay, S2-OAT3 cells (3H-ES). The note with it: 3H-ES 0.05 µM, 2 min. The class given is in vitro ADME.

Data set [2] deals with T2, hOATP1B3 (Homo sapiens, UniProt Q9NPD5).
T2 sequence (Q9NPD5 1-702): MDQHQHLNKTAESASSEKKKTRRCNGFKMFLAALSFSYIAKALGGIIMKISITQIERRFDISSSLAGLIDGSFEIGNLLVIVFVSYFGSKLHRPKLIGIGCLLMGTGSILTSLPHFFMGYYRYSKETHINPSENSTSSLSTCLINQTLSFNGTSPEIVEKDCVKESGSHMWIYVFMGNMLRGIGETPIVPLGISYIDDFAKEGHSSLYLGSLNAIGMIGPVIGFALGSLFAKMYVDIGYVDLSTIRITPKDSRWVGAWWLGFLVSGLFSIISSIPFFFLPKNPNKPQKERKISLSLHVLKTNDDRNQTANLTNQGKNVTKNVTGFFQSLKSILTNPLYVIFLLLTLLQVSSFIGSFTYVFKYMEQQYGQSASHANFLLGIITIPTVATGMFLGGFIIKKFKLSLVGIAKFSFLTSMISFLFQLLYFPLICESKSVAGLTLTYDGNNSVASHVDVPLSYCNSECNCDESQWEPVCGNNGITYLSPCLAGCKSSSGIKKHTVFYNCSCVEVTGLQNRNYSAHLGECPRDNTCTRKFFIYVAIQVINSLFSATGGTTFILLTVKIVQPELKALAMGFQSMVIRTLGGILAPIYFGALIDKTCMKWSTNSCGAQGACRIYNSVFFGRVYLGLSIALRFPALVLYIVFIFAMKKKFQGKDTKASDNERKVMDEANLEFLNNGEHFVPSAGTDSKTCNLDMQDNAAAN
Nature of the data set: Substrates uptake assay, HEK293A-OATP1B3 cells (3H-EG). It is filed as in vitro ADME. The text has this:
Drug transporters mediate the cellular uptake and efflux of their substrates. Therefore, cell lines overexpressing a drug transporter can be utilized to investigate inhibitors of the transporter by assessing changes in substrate uptake. For each drug transporter, we selected a well-characterized inhibitor as the positive control. Radiolabeled substrates were used to indicate the decrease in transport efficiency when the drug transporters were inhibited by PDQ or the control inhibitors.
The concentrations of the control drugs and the substrates were stated in the assay details. Working solutions of the control inhibitors, the radiolabeled substrates, and each dose of PDQ were prepared at 200 times (200×) more concentrated solutions with DMSO for further dilution.
Transporter-overexpressed cell lines. Human organic anion transporter-overexpressed cell lines MDCKII-OAT1 and S2-OAT3, human organic anion transport polypeptide-overexpressed cell lines HEK293A-OATP1B1 and HEK293A-OATP1B3, human organic cation transporter 2-overexpressed cell line S2-OCT2, and human multi-drug resistance protein MDR1 (or P-gp)-overexpressed cell line MDCKII-MDR1 were gifts from Japan Fuji Biomedical Co., Ltd. (Fuji, Shizuoka Prefecture, Japan). Breast cancer resistance protein-overexpressed vesicles (sf9-BCRP vesicle) were purchased from GenoMembrane Co., Ltd. (Yokohama, Kanagawa, Japan).
Substrates uptake assay. In this assay, we studied the inhibition of PDQ against transporters OAT1, OAT3, OCT2, OATP1B1 and OATP1B3 with MDCKII-OAT1, S2-OAT3, S2-OCT2, HEK293A-OATP1B1and HEK293A-OATP1B3 cells, respectively. The radiolabeled substrates for OAT1, OAT3, OATP1B1, OATP1B3 and OCT2 were […], respectively (Table 5). Probenecid ([…]) was the positive control inhibitor of OAT1 and OAT3, while rifampicin ([…]) served as the control drug of OATP1B1 and OATP1B3. For OCT2, we used […] cimetidine to compare with the inhibitory effect of PDQ. Two times (2×) more concentrated working solutions of the drugs and the substrate were prepared with Dulbecco’s phosphate-buffered saline (DPBS, Gibco, Grand Island, NY, USA.). Then, an equal volume of 2× drug solution and 2× radiolabeled substrate solution were mixed as the working mix. All reagents were pre-warmed to 37 °C.
The cells were digested with 0.05% trypsin/EDTA. The density of the single-cell suspension was adjusted to 2.0 × 10^5 cells/mL for S2 cells and to 1.5 × 10^5 cells/mL for MDCK II and HEK293A cells. The cell suspension was then added to the reservoirs of the 24-well plate for culture until full confluency. The medium in the wells was removed, and the wells were washed with DPBS. Then, the plate was incubated for 10 min with pre-warmed DPBS in the wells. After removing DPBS, […] of working mix was added to each well to initiate the substrate uptake process. The reaction time was 5 min for S2-OCT2 cells, while the other four types of cells were incubated with the reaction mix for 2 min. Cold DPBS was used to terminate the substrate transportation. To each well, […] NaOH ([…]) was added to lyse the cells. Then, […] cell lysate was transferred to the counting vials, and 3 mL scintillation cocktail (Aquasol-2, PerkinElmer, Waltham, MA, USA) was added. […] Each sample was replicated three times (N = 3).
In = [100 × (U − U0)/(Uc − U0)]%(3)
The results were expressed as mean ± standard deviation (SD) and analyzed with GraphPad Prism 8.0 software (CA, USA). The IC50 of PDQ was curve-fitted with the FORECAST function. Statistical significance was calculated using a two-tailed test, and a p value < 0.05 was considered as significant.

Bounds are passed on as bounds.

The term IC50 denotes the concentration needed to halve the response being measured. Read a low IC50 as inhibition by little substance.

Turning to `CC(C)(O)[C@@H]1CC[C@@](C)([C@H]2CC[C@]3(C)[C@@H]2[C@H](O)C[C@@H]2[C@@]4(C)CC[C@H](O)C(C)(C)[C@@H]4CC[C@]23C)O1` [PDQ, (20S,24S)-dammar-20,24-epoxy-3β, 12β, 25-triol], the IC50 was > 30 µM in data set [1] and > 30 µM in data set [2] (HEK293A-OATP1B3, 3H-EG 1 µM, 2 min). Further, the “DPM (3H-EG uptake by OATP1B3)” value in data set [2] (inhibitor 0.1 μM) is 3332.7±245.2 DPM; in data set [2] (inhibitor 0.3 μM), 3200.3±323.1 DPM; in data set [2] (inhibitor 1 μM), 3093.3±182.0 DPM; in data set [2] (inhibitor 3 μM), 2980.7±186.5 DPM; in data set [2] (inhibitor 10 μM), 2985.0±250.2 DPM; in data set [2] (inhibitor 30 μM), 2649.0±200.2 DPM.
